Experimental data: US20230143751A1, “Aromatic Compound And Use Thereof In Preparing Antineoplastic Drugs” (Shanghai Zheye Biotechnology Co. Ltd., priority 2020, published 2023)
Read-outs that look alike come from different tables or passages of the source.

Legend:
Format in all cases: cell-based
[1] = test system: NCI-H358 cells; assay: Cell proliferation activity of NCI-H358 by CellTiter-Glo reagent; details: for IC50: read-out: IC50 value of cell proliferation inhibitory activity of NCI-H358
Description: NCI-H358 cells in exponential growth phase were digested with trypsin-EDTA, plated in a 96-well plate with 2000-3000 cells per well, and incubated overnight at 37° C. with 5% CO2. […] After the incubation, CellTiter-Glo test reagent with an equal volume was added into each well and the obtained 96-well plate was incubated after shaking. The chemiluminescence values were determined by microplate reader, and the IC50 values of the test compounds inhibiting the proliferation of NCI-H358 cells were fitted and calculated by GraphPad Prism software.
The test method of inhibitory activity was the same as that in Test 3 in “Biological Tests” part.

[2] = test system: NCI-H358; assay: Cell proliferation inhibitory activity on NCI-H358, 3D model test (agarose colony formation); details: for anti-cell proliferation activity against KRAS G12C mutant type cells NCI-H358 (in words): 3D model test; for IC50: Homo sapiens, NCI-H358, 3D agarose colony formation, NBT staining
Description: 100 μl of agarose gel with a high concentration was spread in a 96-well plate as the bottom agarose gel layer. Agarose with a low concentration and growth medium containing cells were mixed and then spread on the bottom agar layer, cooled and solidified, then incubated overnight at 37° C. Mother solutions were prepared from the test compounds by using DMSO, and then subjected to gradient elution with RPMI 1640 growth medium. The solutions of test compounds with different concentrations after gradient elution were added to the 96-well plate comprising an upper layer of agar gel-cells. Solvent control well was set up and the plate was incubated in a CO2 incubator. The drug-containing medium was changed during the incubation period and the cell growth situation was observed. After the incubation, the cells were stained with NBT and the number of cell colony formation was counted, and the IC50 values of the compounds inhibiting cell proliferation were derived.

[3] = test system: MIA PaCa-2 cells; assay: Cell proliferation activity of MIA PaCa-2 by CellTiter-Glo reagent; details: 72 h, CellTiter-Glo; for IC50: Homo sapiens, MIA PaCa-2, read-out: IC50 value of cell proliferation inhibitory activity of the compound on MIA PaCa-2
Description: MIA PaCa-2 cells in exponential growth phase were digested with trypsin-EDTA, plated in a 96-well plate with 2000-3000 cells per well, and incubated overnight at 37° C. with 5% CO2. Mother solutions were prepared from the test compounds by using DMSO, subjected to gradient elution with DMEM growth medium, and then added into the 96-well plate and incubated in an incubator for 72 h at 37° C. with 5% CO2. After the incubation, CellTiter-Glo test reagent with an equal volume was added into each well and the obtained 96-well plate was incubated after shaking. The chemiluminescence values were determined by microplate reader, and the IC50 values of the test compounds inhibiting the proliferation of MIA PaCa-2 cells were fitted and calculated by GraphPad Prism software.
The test method of inhibitory activity was the same as that in Test 2 in “Biological Tests” part.

[4] = Homo sapiens, NCI-H358, 72 h, 72 h, CellTiter-Glo, test 3
[5] = Homo sapiens, NCI-H358, test 4, method of test 3

Row | SMILES | anti-cell proliferation activity against KRAS G12C mutant type cells NCI-H358 (in words) ([1]; 72 h, CellTiter-Glo) | IC50 [1, 5] [nM] | IC50 [2] [nM] | other results
1 | [2H]C([2H])=Cc1ccccc1-c1nc2c(cc1Cl)c(N1[C@@H](C)CN(C(=O)C=C)C[C@@H]1C)nc(=O)n2-c1c(CC)ccnc1C(C)C [Compound 2-3] | significant anti-cell proliferation activity |  |  | 
2 | [2H]/C=C(\[2H])C(=O)N1CCN(c2nc(=O)n(-c3c(CC)ccnc3C(C)C)c3nc(-c4c(F)cccc4C=C)c(Cl)cc23)[C@@H](C)C1 [Compound 2-8] | significant anti-cell proliferation activity |  |  | IC50 [1, 4]: < 50 nM
3 | C=CC(=[18O])N1CCN(c2nc(=O)n(-c3c(C)ccnc3C(C)C)c3nc(-c4ccccc4C=C)c(Cl)cc23)[C@@H](C)C1 [Compound 3-1MIS] | significant anti-cell proliferation activity | < 50 |  | 
4 | C=CC(=O)N1CCN(c2nc(=O)n(-c3c(C)ccnc3C(C)C)c3nc(-c4ccccc4C=C)c(F)cc23)[C@@H](C)C1 [Compound 3-1] |  |  | < 50 | anti-cell proliferation activity against KRAS G12C mutant type cells NCI-H358 (in words) [2]: significant anti-cell proliferation activity; anti-cell proliferation activity against KRAS G12C mutant type cells MIA PaCa-2 (in words) [3]: significant anti-cell proliferation activity; IC50 [3]: < 50 nM
5 | C=CC(=[18O])N1C[C@H](C)N(c2nc(=O)n(-c3c(C)ccnc3C(C)C)c3nc(-c4ccccc4C=C)c(Cl)cc23)[C@@H](C)C1 [Compound 3-3MIS] | significant anti-cell proliferation activity | < 50 |  | 
6 | C=CC(=O)N1CCN(c2nc(=O)n(-c3c(CC)ccnc3C(C)C)c3nc(-c4ccccc4C=C)c(Cl)cc23)[C@@H](C)C1 [Compound 3-4MIS] |  |  |  | IC50 ([1]; 72 h, CellTiter-Glo, test 3): < 50 nM
7 | C=CC(=[18O])N1CCN(c2nc(=O)n(-c3c(CC)ccnc3C(C)C)c3nc(-c4ccccc4C=C)c(Cl)cc23)[C@@H](C)C1 [Compound 3-4MIS] | significant anti-cell proliferation activity | < 50 |  | 
8 | C=CC(=[18O])N1CCN(c2nc(=O)n(-c3c(C)ccnc3C(C)C)c3nc(-c4c(F)cccc4C=C)c(Cl)cc23)[C@@H](C)C1 [Compound 3-5MIS] | significant anti-cell proliferation activity | < 50 |  | 
9 | C=CC(=O)N1CCN(c2nc(=O)n(-c3c(C)ccnc3C(C)C)c3nc(-c4c(F)cccc4C=C)c(F)cc23)[C@@H](C)C1 [Compound 3-5] |  |  | < 50 | anti-cell proliferation activity against KRAS G12C mutant type cells NCI-H358 (in words) [2]: significant anti-cell proliferation activity; anti-cell proliferation activity against KRAS G12C mutant type cells MIA PaCa-2 (in words) [3]: significant anti-cell proliferation activity; IC50 [3]: < 50 nM
10 | C=CC(=[18O])N1C[C@H](C)N(c2nc(=O)n(-c3c(C)ccnc3C(C)C)c3nc(-c4c(F)cccc4C=C)c(Cl)cc23)[C@@H](C)C1 [Compound 3-7MIS] | significant anti-cell proliferation activity | < 50 |  | 
11 | C=CC(=[18O])N1CCN(c2nc(=O)n(-c3c(CC)ccnc3C(C)C)c3nc(-c4c(F)cccc4C=C)c(Cl)cc23)[C@@H](C)C1 [Compound 3-8MIS] | significant anti-cell proliferation activity | < 50 |  | 
12 | C=CC(=O)N1C[C@H](C)N(c2nc(=O)n(-c3c(C)ccnc3C(C)C)c3nc(-c4c(F)cccc4C=C)c(Cl)cc23)[C@@H](C)C1 [Compound 3-8] |  |  |  | IC50 [3]: < 50 nM
13 | [2H]C([2H])=Cc1cccc(F)c1-c1nc2c(cc1Cl)c(N1CCN(C(=[18O])C=C)C[C@@H]1C)nc(=O)n2-c1c(C)ccnc1C(C)C [Compound 3-9MIS] | significant anti-cell proliferation activity | < 50 |  | 
14 | [2H]C([2H])=Cc1cccc(F)c1-c1nc2c(cc1Cl)c(N1[C@@H](C)CN(C(=[18O])C=C)C[C@@H]1C)nc(=O)n2-c1c(C)ccnc1C(C)C [Compound 3-11MIS] | significant anti-cell proliferation activity | < 50 |  | 
15 | [2H]C([2H])=Cc1cccc(F)c1-c1nc2c(cc1Cl)c(N1CCN(C(=[18O])C=C)C[C@@H]1C)nc(=O)n2-c1c(CC)ccnc1C(C)C [Compound 3-12MIS] | significant anti-cell proliferation activity | < 50 |  | 
16 | [2H]C([2H])=Cc1ccccc1-c1nc2c(cc1Cl)c(N1CCN(C(=O)C=C)C[C@@H]1C)nc(=O)n2-c1c(C)ccnc1C(C)C [Compound 3-16M] | significant anti-cell proliferation activity |  |  | IC50 [1, 4]: < 50 nM; cell proliferation inhibitory activity on NCI-H358 compared with the corresponding compound with axial chiral S configuration (in words) ([1]; NCI-H358): significantly better
17 | [2H]C([2H])=Cc1cccc(F)c1-c1nc2c(cc1F)c(N1CCN(C(=O)C=C)C[C@@H]1C)nc(=O)n2-c1c(C)ccnc1C(C)C [Compound 3-19] |  |  | < 50 | anti-cell proliferation activity against KRAS G12C mutant type cells NCI-H358 (in words) [2]: significant anti-cell proliferation activity; anti-cell proliferation activity against KRAS G12C mutant type cells MIA PaCa-2 (in words) [3]: significant anti-cell proliferation activity; IC50 [3]: < 50 nM
18 | [2H]C([2H])=Cc1ccccc1-c1nc2c(cc1F)c(N1CCN(C(=O)C=C)C[C@@H]1C)nc(=O)n2-c1c(C)ccnc1C(C)C [Compound 3-23] |  |  | < 50 | IC50 [3]: < 50 nM
19 | [2H]C([2H])=Cc1cccc(F)c1-c1nc2c(cc1F)c(N1[C@@H](C)CN(C(=O)C(=C)F)C[C@@H]1C)nc(=O)n2-c1c(C)ccnc1C(C)C [Compound 3-25] |  |  | < 50 | 
20 | [2H]C([2H])=Cc1cccc(F)c1-c1nc2c(cc1F)c(N1CCN(C(=O)C(=C)F)C[C@@H]1C)nc(=O)n2-c1c(C)ccnc1C(C)C [Compound 3-27] |  |  | < 50 | 
21 | [2H][C@]1(C)CN(C(=O)C=C)CCN1c1nc(=O)n(-c2c(C)ccnc2C(C)C)c2nc(-c3c(F)cccc3C=C)c(Cl)cc12 [Compound 3-49] | significant anti-cell proliferation activity |  |  | IC50 [1, 4]: < 50 nM
22 | [2H]/C=C(\[2H])C(=O)N1CCN(c2nc(=O)n(-c3c(C)ccnc3C(C)C)c3nc(-c4c(F)cccc4C=C)c(Cl)cc23)[C@@H](C)C1 [Compound 3-51] | significant anti-cell proliferation activity |  |  | IC50 [1, 4]: < 50 nM
23 | [2H]C([2H])=Cc1cccc(F)c1-c1nc2c(cc1F)c(N1[C@@H](C)CN(C(=O)C(=C)F)C[C@@H]1C)nc(=O)n2-c1c(C([2H])([2H])[2H])ccnc1C(C)C [Compound 4-9] |  |  | < 50 | 
24 | [2H]C([2H])=Cc1cccc(F)c1-c1nc2c(cc1F)c(N1CCN(C(=O)C(=C)F)C[C@@H]1C)nc(=O)n2-c1c(C([2H])([2H])[2H])ccnc1C(C)C [Compound 4-11] |  |  | < 50 | 
25 | [2H]C([2H])=Cc1ccccc1-c1nc2c(cc1F)c(N1CCN(C(=O)C(=C)F)C[C@@H]1C)nc(=O)n2-c1c(C([2H])([2H])[2H])ccnc1C(C)C [Compound 4-16] |  |  | < 50 | 
26 | [2H]C([2H])=Cc1cccc(F)c1-c1nc2c(cc1F)c(N1[C@@H](C)CN(C(=O)C(=C)F)C[C@@H]1C)nc(=O)n2-c1c(C(C)C)ccnc1C(C)C [Compound 5-9] |  |  | < 50 | 
27 | [2H]C([2H])=Cc1cccc(F)c1-c1nc2c(cc1F)c(N1CCN(C(=O)C(=C)F)C[C@@H]1C)nc(=O)n2-c1c(C(C)C)ccnc1C(C)C [Compound 5-11] |  |  | < 50 | 
28 | C=CC(=O)N1CCN(c2nc(=O)n(-c3c(C)ccnc3C(C)C)c3nc(-c4c(F)cccc4C=C)c(Cl)cc23)[C@@H](C)C1 [Example 3-12P] |  |  |  | IC50 ([1]; 72 h, CellTiter-Glo, test 3): > 50 nM
